Data as given in patent US10675239B2, “Vegetable extract to prevent and treat hair loss” (GIULIANI S.P.A., priority 2017, dated 2020).

Experiments:
Format in all cases: cell-based, mouse
[1] = tested on: 5 alpha-reductase isoform 2 (SRD5A2); assay: Gene expression of isoform 2 of 5 alpha-reductase (SRD5A2) in BALB3T3 cells by qRT-PCR; conditions: 0.05 mg/mL, 24 h, relative expression 2^-ΔΔCt vs β-actin, Ctr = 1
Protocol: Effects of Galeopsis segetum and Galeopsis tetrahit Study on the Activity of 5 Alpha-Reductase (Isoform 2)-BALB3T3
The gene expression of the isoform 2 of 5 alpha-reductase (SRD5A2) in BALB3T3 cells was evaluated by relative quantitative RT-PCR (quantitative reverse transcription polymerase chain reaction-qRT-PCR).
This analysis has foreseen 3 sequential phases: • Total RNA extraction; • Reverse transcription in cDNA; • qRT-PCR.
BALB3T3 murine fibroblasts were seeded in 12-well plates at a density of 0.5*10^6 cells/well and incubated until about 80% confluence was achieved.
Subsequently, the cells were incubated for 24 hours with Galeopsis segetum and Galeopsis tetrahit (vegetable biomass and dry hydro-alcoholic sample) at the following concentrations: 20-50 and 100 μg/ml. […]
At the end of the incubation with the active compounds of interest, cells were washed with PBS (1×) and finally subjected to the RNA extraction procedure. At the end of the extraction, using a spectrophotometer (Jenway UV/VIS MOD: 6715, BS-6715B0), the concentrations in μg/ml of total RNA extracted at the wavelength of 260 nm were calculated. Finally, the integrity of RNA (2 μg/ml) by electrophoretic run on 1% agarose gel was evaluated. […]
The extracted and quantified RNA was diluted to a concentration of 2 μg/ml and retro-transcripted in cDNA. […]
Assuming a 100% amplification efficiency, the 2^−ΔΔCt was calculated.

[2] = tested on: BALB3T3 murine fibroblasts stressed with H2O2; assay: MTT with induced oxidative stress-BALB3T3; conditions: 50 μM, pretreatment, then 1 mM H2O2 90 min; non-stressed ctr = 100, Ctr + H2O2 = 58.43
Excerpt: MTT with Induced Oxidative Stress-BALB3T3
BALB3T3 mouse fibroblasts are one of the validated models for studies of oxidative stress in vitro (Subirade et al., 1995; Kutuk et al., 2004).
Studies conducted in 2005 by Rajapakse and coworkers (2005) highlighted the possibility of exploiting a highly used and versatile method such as that of the MTT assay for the in vitro study antioxidant activity of active compounds. Specifically, through this method it is possible to study the protective effects of these compounds on cells subsequently subjected to oxidative stress. The induction of oxidative stress is carried out by incubation with hydrogen peroxide, an agent that induces the production of oxidative damage in the cells through ROS formation. The possible protective effects can be determined through the assessment of cell viability after oxidative stress of the pre-treated/pre-exposed cells to the active compounds to be tested, in comparison with cells subjected to the same oxidative stress. […]
Once the oxidation stress induction phase was completed, the cell viability of the various samples was evaluated, according to the method described in point 4.1.2 (assay with MTT).
The data were expressed as a percentage of cell viability compared to non-stressed control cells (ctr), according to the following formula: % cell viability/ctr=(Sample Abs/ctr Abs)*100 […]

[3] = tested on: ROS production in the BALB3T3 murine fibroblast cell line; assay: ROS intracellular production (DCFH-DA assay)-BALB3T3; conditions: 25 μM, 16 h pretreatment, then 1 mM H2O2 90 min; ctr + H2O2 = 100
Protocol: Study of the Effects of Galeopsis segetum and Galeopsis tetrahit and on ROS Production Using a DCFH-DA-BALB3T3 Assay
The ROS production in the BALB3T3 murine fibroblast cell line was determined by spectrophotometer using the 2,7-dichlorofluorescein-diacetate (DCFH-DA) assay, as described by Tobi et al. (Tobi et al., 2000).
DCFH-DA is a non-fluorescent compound in lipophilic form, able to spread through the cell membrane. Once inside the cell, it is deacetylated by the intracellular esterases to reduced 2,7-dichlorofluorescein (DCFH), which is also non-fluorescent. DCFH, unable to cross again the cell membrane, eventually ends up accumulating in the cells (Curtin et al., 2002). The intracellular ROS reaction leads to the oxidation of 2.7-dichlorofluorescein (DCF) DCFH, a highly fluorescent compound. This fluorescence intensity can be detected with a fluorimeter, allowing estimating the amount of ROS produced in the cells.
[…]
Subsequently, the lysates were transferred in a 96-well black plate and the fluorescence of DCF was read spectrofluorimetrically using a FluoroskanAscent FL Microplate Fluorescence Reader (Thermo Fisher ScientificInc., Waltham, Mass., USA), with excitation and emission wavelengths of 485 and 538 nm respectively. […]

Structure (SMILES)	mRNA SERD5A2 [1]	% cells viability [2] [%]	% ROS [3] [%]
CC(C)(C)NC(=O)[C@H]1CC[C@H]2[C@@H]3CC[C@H]4NC(=O)C=C[C@]4(C)[C@H]3CC[C@]12C [finasteride]	0.31		
Cc1c(C)c2c(c(C)c1O)CC[C@@](C)(CCC[C@H](C)CCC[C@H](C)CCCC(C)C)O2 [α-tocopherol]		78.37	39.67
